From patent publication EP4483904A1, “POLYOXOMETALATES AS MEMBRANE CARRIERS” (Universität Wien, priority 2023, dated 2025)

Legend:
[1] = Transport experiments in CF-loaded anionic vesicles; assay type: biochemical; conditions: DMPE/DPPG/CHOL (anionic), 13 µM phospholipids, 10 µM heptaArg
Protocol: Anionic vesicles in neutral media: Anionic vesicles were prepared analogously except for the lipid composition, DMPE/DPPG/CHOL (4.4/10.4/2.6 mg, 1/2/1 molar ratio) in a 1:1 mixture of CHCl3 and MeOH (1mL), the hydration (60 mins) and extrusion were performed at 55 °C, and the employed buffers were 100 mM CF, 10 mM Tris, pH 7.4 and 10 mM Tris, 140 mM NaCl, pH 7.4 for rehydration and elution, respectively.
Vesicles stock solutions (5-10 µL) were diluted with the corresponding buffer in a disposable plastic cuvette and gently stirred (total volume 2000 µL, final lipid concentration 13 µM). […] Fluorescence intensities were normalized to fractional emission as: I(t) = (It −I0)/(I∞ −I0) [formula]
Where I0 = It before POM addition and […] = I∞ after lysis. For Hill analysis, It before lysis was defined as transport activity, Y, and plotted against POM concentration, c, and fitted to the Hill equation (2), to afford the activity in absence of POM, Y0, the maximal activity, Ymax, the concentration needed to achieve 50 % of maximal activity, EC50, and the Hill coefficient, n. Y = Y0 + (Ymax −Y0)/(1 + (((EC50)/(c)))^n) [formula]
In the transport measurements, where different carriers (POMs) are tested with the same cargo, the activator efficiency (E) is determined by their capacity to transport the impermeable cargo to the intravesicular region and is characterized by Ymax, its maximal activity, and EC50, the effective activator concentration. An ideal carrier reaches high Ymax at low EC50. To count both factors, the activator efficiency is defined as: E = Ymax (pEC50)/(f) [formula] were pEC50 is the negative logarithm of the EC50, and fa scaling factor, which was set to 20.6 to calibrate the highest (previously known) activation efficiency, E, as 10.

heptaArg = assay: Isothermal titration calorimetry, POM into heptaArg; assay type: binding; conditions: 10 mM Mes, pH 5.5, 298.15 K
Protocol: (§1) All experiments were performed with a VP-ITC MicroCalorimeter from MicroCal, Int,. at atmospheric pressure and 298.15 K. Solutions were degassed and thermostatic prior the titration experiments in a ThermoVac accessory. A constant volume of POM ([PVW11]^4- or [SiMoW11]^4-) (10 µL per injection) was injected into the oligopeptide solution (heptaArg, protamine, polyArg or heptaLys) in 10 mM Mes, pH 5.5 to determine the apparent binding affinity of [PVW11]^4- and [SiMoW11]^4- with the oligopeptides. Dilution heats were determined by titration of the POM into buffer and subtracted from the reaction heat. The neat reaction heat was fitted with Origin 7.0 software by using the "one-set-of-sites" model to obtain the complex stability constant (Ka) and molar reaction enthalpy (ΔH°). The free energy (ΔG°) and entropy changes (ΔS°) were obtained according to the relation: ΔG° = - R TInKa = ΔH°-TΔS°.

polyArg = assay: Isothermal titration calorimetry, POM into polyArg; assay type: binding; conditions: 10 mM Mes, pH 5.5, 298.15 K
Protocol: as §1

[2] = tested on: oligopeptide (heptaArg, protamine, polyArg or heptaLys); assay: Isothermal titration calorimetry, POM-cargo interaction (summary statement); assay type: binding; conditions: ITC, POM and cargos
Protocol: as §1
To affect membrane transport, any carrier needs to display an affinity towards the cargo as well as towards the lipid bilayer. Accordingly, the interaction between [PVW11]^4- and [SiMoW11]^4- and the cargos was analyzed by isothermal titration calorimetry (ITC). […] The strong but reversible intermolecular interactions between the low-charged POMs and the cationic peptides established by ITC present an interesting finding. […]

CHO-K1 cells = assay: Confocal imaging of FITC-Arg8 cellular uptake; assay type: cell-based; conditions: 4 µM FITCArg8, 5 and 10 µM carrier, 1 h, fixed cells, preliminary
Protocol: For confocal microscopy experiments, CHO-K1 cells were seeded into 12-well plates (Eppendorf) at a density of 1×10^5 cells/well (per 1 mL) and incubated for 24 h in Ham's F-12 containing 10 % (v/v) fetal bovine serum at 37 °C in a 5 % CO2. The cells were washed twice with PBS, and then incubated with POMs and FITC-Arg8 (4 µM) for 1 h at 37 °C, cells were washed twice with Hank's Balanced Salt solution containing 100 µg/mL heparin, twice again with PBS and fixed with 1 mL cold 4 % paraformaldehyde for 20 min. The cells were rewashed twice with PBS and subsequently the nuclei were stained with 2 µg/mL DAPI for 10 min at room temperature before imaging. Cells were imaged by LSM 980 confocal laser scanning microscope. Images were processed with Zen 3.2 software (Zeiss).

## K4[α-P^VV^VW^VI11O40]·4H2O [[PVW11]^4-]
[1]
  E (activation efficiency): 2.8
  EC50: 50 µM
  Ymax: 45%
heptaArg
  HeptaArg Ka/ 10^7: 5.7 ± 0.7 10^7 M-1
polyArg
  PolyArg Ka/ 10^7: 3.5 ± 0.6 10^7 M-1
[2]
  supramolecular interactions with the cargos (affinity, order of magnitude): ~10^7 M^-1
CHO-K1 cells
  FITCArg8 uptake (confocal fluorescence microscopy): strong diffuse fluorescence

## K4[α-Si^IVMo^VIW^VI11O40]·24H2O [[SiMoW11]^4-]
[1]
  E (activation efficiency): 3.6
  EC50: 60 µM
  Ymax: 61%
heptaArg
  HeptaArg Ka/ 10^7: 0.6 10^7 M-1
polyArg
  PolyArg Ka/ 10^7: 1.6 ± 0.2 10^7 M-1
[2]
  supramolecular interactions with the cargos (affinity, order of magnitude): ~10^7 M^-1
CHO-K1 cells
  FITCArg8 uptake (confocal fluorescence microscopy): strong diffuse fluorescence
